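Assay format: 96-well plates, 48-hour exposure. The concentration for 50% growth inhibition is given as GI50. TGI is the concentration that stops growth completely.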
Key:
Experiment in all cases: NCI-60 cell line screen, 48 h
[1] = test system: M14 melanoma
[2] = test system: MDA-MB-435
[3] = test system: SN12C renal
[4] = test system: NCI-H460 lung
[5] = test system: DU-145 prostate
[6] = test system: HCT-15 colon
[7] = test system: RXF 393 renal
[8] = test system: OVCAR-8 ovarian
[9] = test system: OVCAR-4 ovarian
[10] = test system: SK-MEL-5 melanoma
[11] = test system: HCC-2998 colon
[12] = test system: NCI/ADR-RES ovarian
[13] = test system: LOX IMVI melanoma
[14] = test system: SR leukemia
[15] = test system: IGROV1 ovarian
[16] = test system: HCT-116 colon
[17] = test system: ACHN renal
[18] = test system: OVCAR-5 ovarian
[19] = test system: NCI-H522 lung
[20] = test system: SK-OV-3 ovarian
[21] = test system: CCRF-CEM leukemia
[22] = test system: SF-295 CNS
[23] = test system: OVCAR-3 ovarian
[24] = test system: TK-10 renal
[25] = test system: SK-MEL-2 melanoma
[26] = test system: UACC-257 melanoma
[27] = test system: SK-MEL-28 melanoma
[28] = test system: HT29 colon
[29] = test system: MOLT-4 leukemia
[30] = test system: SF-268 CNS
[31] = test system: HOP-62 NSCLC
[32] = test system: MDA-MB-231 breast
[33] = test system: SNB-75 CNS
[34] = test system: A498 renal
[35] = test system: MCF7 breast
[36] = test system: T-47D breast
[37] = test system: HS 578T breast
[38] = test system: U251 CNS
[39] = test system: A549 NSCLC
[40] = test system: RPMI-8226 leukemia
[41] = test system: SW-620 colon
[42] = test system: NCI-H226 lung
[43] = test system: K-562 leukemia
[44] = test system: SF-539 CNS
[45] = test system: HL-60(TB) leukemia
[46] = test system: 786-0 renal
[47] = test system: PC-3 prostate
[48] = test system: SNB-19 CNS
[49] = test system: MALME-3M melanoma
[50] = test system: NCI-H23 lung
[51] = test system: BT-549 breast
[52] = test system: KM12 colon
[53] = test system: UO-31 renal
[54] = test system: CAKI-1 renal
[55] = test system: COLO 205 colon
[56] = test system: UACC-62 melanoma
[57] = test system: HOP-92 NSCLC
[58] = test system: EKVX NSCLC

For `Cc1onc(-c2ccccc2)c1C(=O)N/N=C/c1cc(Cl)cc(Cl)c1O`, the GI50 [1] was 3.74 µM, the TGI [1] was 46.3 µM and the GI50 [2] was 6.39 µM. For the same compound, the TGI [2] was > 100 µM, the GI50 [3] was 4.58 µM and the TGI [3] was 60.5 µM. For the same compound, the GI50 [4] was 3.6 µM, the TGI [4] was > 100 µM and the GI50 [5] was 6.72 µM. The TGI [5] was > 100 µM, the GI50 [6] was 2.05 µM and the TGI [6] was > 100 µM. The GI50 [7] was 7.72 µM, the TGI [7] was > 100 µM and the GI50 [8] was 3.59 µM. For the same compound, the TGI [8] was > 100 µM, the GI50 [9] was 2.07 µM and the TGI [9] was > 100 µM. For the same compound, the GI50 [10] was 3.47 µM, the TGI [10] was 21.1 µM and the GI50 [11] was 4130 nM. For the same compound, the TGI [11] was 18.2 µM, the GI50 [12] was 3.76 µM and the TGI [12] was 34.3 µM. It also gave a GI50 [13] of 2.93 µM, a TGI [13] of 32.3 µM and a GI50 [14] of 3740 nM. It also gave a TGI [14] of 25.1 µM, a GI50 [15] of 2.92 µM and a TGI [15] of 21.7 µM. For the same compound, the GI50 [16] was 4.11 µM, the TGI [16] was > 100 µM and the GI50 [17] was 2.67 µM. The TGI [17] was > 100 µM, the GI50 [18] was 8.65 µM and the TGI [18] was > 100 µM. It also gave a GI50 [19] of 3.67 µM, a TGI [19] of 33.6 µM and a GI50 [20] of 7.82 µM. For the same compound, the TGI [20] was 50.7 µM, the GI50 [21] was 1.48 µM and the TGI [21] was 14.7 µM. For the same compound, the GI50 [22] was 2.05 µM, the TGI [22] was 11.3 µM and the GI50 [23] was 3.82 µM. The TGI [23] was 26.6 µM, the GI50 [24] was 5.01 µM and the TGI [24] was > 100 µM. For the same compound, the GI50 [25] was 11.5 µM, the TGI [25] was 56 µM and the GI50 [26] was 3.47 µM. The TGI [26] was 27.3 µM, the GI50 [27] was 6.51 µM and the TGI [27] was > 100 µM. The GI50 [28] was 8.63 µM, the TGI [28] was 58.7 µM and the GI50 [29] was 3.53 µM. For the same compound, the TGI [29] was 22.9 µM, the GI50 [30] was 3.44 µM and the TGI [30] was > 100 µM. The GI50 [31] was 6.04 µM, the TGI [31] was 55.7 µM and the GI50 [32] was 4.27 µM. The TGI [32] was 35.7 µM, the GI50 [33] was 6.75 µM and the TGI [33] was > 100 µM. It also gave a GI50 [34] of 15 µM, a TGI [34] of 58.2 µM and a GI50 [35] of 3.18 µM. The TGI [35] was > 100 µM, the GI50 [36] was 6.31 µM and the TGI [36] was 57.8 µM. For the same compound, the GI50 [37] was 17.8 µM, the TGI [37] was > 100 µM and the GI50 [38] was 3.19 µM. For the same compound, the TGI [38] was 57.6 µM, the GI50 [39] was 5.07 µM and the TGI [39] was > 100 µM. The GI50 [40] was 5.61 µM, the TGI [40] was 49.7 µM and the GI50 [41] was 6.81 µM. For the same compound, the TGI [41] was > 100 µM, the GI50 [42] was 8.47 µM and the TGI [42] was 72.7 µM. For the same compound, the GI50 [43] was 4.58 µM, the TGI [43] was 55.9 µM and the GI50 [44] was 2.65 µM. It also gave a TGI [44] of 11.6 µM, a GI50 [45] of 2610 nM and a TGI [45] of 7.32 µM. It also gave a GI50 [46] of 5.01 µM, a TGI [46] of 50.7 µM and a GI50 [47] of 3.93 µM. For the same compound, the TGI [47] was 32.6 µM, the GI50 [48] was 4.12 µM and the TGI [48] was > 100 µM. For the same compound, the GI50 [49] was 4030 nM, the TGI [49] was 27.4 µM and the GI50 [50] was 10.6 µM. For the same compound, the TGI [50] was 67.9 µM, the GI50 [51] was 12.1 µM and the TGI [51] was 49.4 µM. For the same compound, the GI50 [52] was 5.54 µM, the TGI [52] was > 100 µM and the GI50 [53] was 1.83 µM. The TGI [53] was 12.9 µM, the GI50 [54] was 1.84 µM and the TGI [54] was 10.5 µM. It also gave a GI50 [55] of 3840 nM, a TGI [55] of 24.2 µM and a GI50 [56] of 2.16 µM. The TGI [56] was 6.83 µM.

For `Cc1cc2nc(NCCN)n(Cc3ccc(F)c(Cl)c3)c2cc1C`, the GI50 [1] was 2.52 µM, the TGI [1] was 7.07 µM and the GI50 [2] was 3.68 µM. The TGI [2] was 14 µM, the GI50 [3] was 15.1 µM and the TGI [3] was 29.8 µM. It also gave a GI50 [4] of 3.2 µM, a TGI [4] of 10.4 µM and a GI50 [5] of 14.1 µM. It also gave a TGI [5] of 27.4 µM, a GI50 [6] of 5.74 µM and a TGI [6] of 19.1 µM. The GI50 [8] was 17 µM, the TGI [8] was 33.1 µM and the GI50 [9] was 14 µM. For the same compound, the TGI [9] was 28.3 µM, the GI50 [10] was 14.4 µM and the TGI [10] was 27.6 µM. It also gave a GI50 [11] of 1820 nM, a TGI [11] of 3.65 µM and a GI50 [12] of 16.3 µM. The TGI [12] was 32.1 µM, the GI50 [13] was 3.73 µM and the TGI [13] was 14.5 µM. The GI50 [14] was 2030 nM, the TGI [14] was 6.04 µM and the GI50 [15] was 11.7 µM. It also gave a TGI [15] of 27.5 µM, a GI50 [16] of 2.29 µM and a TGI [16] of 4.7 µM. For the same compound, the GI50 [17] was 11.2 µM, the TGI [17] was 24.7 µM and the GI50 [18] was 13.7 µM. The TGI [18] was 28.3 µM, the GI50 [19] was 19.5 µM and the TGI [19] was 35.1 µM. It also gave a GI50 [20] of 16.9 µM, a TGI [20] of 30.8 µM and a GI50 [21] of 12.7 µM. For the same compound, the TGI [21] was 29.3 µM, the GI50 [22] was 12.8 µM and the TGI [22] was 26.1 µM. It also gave a GI50 [23] of 12.8 µM, a TGI [23] of 27 µM and a GI50 [24] of 16.9 µM. For the same compound, the TGI [24] was 31.2 µM, the GI50 [25] was 19.1 µM and the TGI [25] was 34 µM. For the same compound, the GI50 [57] was 2350 nM, the TGI [57] was 14.3 µM and the GI50 [27] was 2.47 µM. It also gave a TGI [27] of 6.63 µM, a GI50 [28] of 11.7 µM and a TGI [28] of 24.5 µM. It also gave a GI50 [29] of 6.42 µM, a TGI [29] of 22.1 µM and a GI50 [30] of 11.6 µM. The TGI [30] was 26 µM, the GI50 [31] was 14.2 µM and the TGI [31] was 28.5 µM. For the same compound, the GI50 [32] was 2.68 µM, the TGI [32] was 9.44 µM and the GI50 [33] was 10.6 µM. For the same compound, the TGI [33] was 23.4 µM, the GI50 [35] was 11.7 µM and the TGI [35] was 27.1 µM. The GI50 [36] was 6.16 µM, the TGI [36] was 21.7 µM and the GI50 [37] was 11.8 µM. For the same compound, the TGI [37] was 28.2 µM, the GI50 [38] was 12.3 µM and the TGI [38] was 25.1 µM. For the same compound, the GI50 [39] was 17.8 µM, the TGI [39] was 32.2 µM and the GI50 [40] was 3.95 µM. The TGI [40] was 15.1 µM, the GI50 [41] was 3.31 µM and the TGI [41] was 10.8 µM. For the same compound, the GI50 [42] was 19.8 µM, the TGI [42] was 39.7 µM and the GI50 [43] was 2.57 µM. The TGI [43] was 6.97 µM, the GI50 [44] was 11.7 µM and the TGI [44] was 26 µM. The GI50 [45] was 2830 nM, the TGI [45] was 11.7 µM and the GI50 [46] was 10.2 µM. The TGI [46] was 23.3 µM, the GI50 [47] was 10 µM and the TGI [47] was 22.4 µM. For the same compound, the GI50 [58] was 13.8 µM, the TGI [58] was 28.4 µM and the GI50 [48] was 13.6 µM. For the same compound, the TGI [48] was 28.6 µM, the GI50 [49] was 1830 nM and the TGI [49] was 4.19 µM. It also gave a GI50 [50] of 14.5 µM, a TGI [50] of 29.2 µM and a GI50 [51] of 14.8 µM. It also gave a TGI [51] of 30.2 µM, a GI50 [52] of 5.28 µM and a TGI [52] of 18.6 µM. The GI50 [53] was 10.7 µM, the TGI [53] was 24 µM and the GI50 [54] was 12.7 µM. The TGI [54] was 25.4 µM, the GI50 [55] was 1680 nM and the TGI [55] was 3.38 µM. It also gave a GI50 [56] of 13.3 µM and a TGI [56] of 27.2 µM.

Source: PubChem BioAssay (NCI)
